Measurements published in patent US20190328833A1, “POLYMYXIN-ALGINATE OLIGOMER CONJUGATES” (AlgiPharma AS, priority 2016, published 2019).

What was measured:
[1] = test system: human kidney (HK-2) cell line; experiment: In vitro cytotoxicity: MTT assay; type: cell-based; details: HK-2, 72 h, concentration of the antibiotic or the antibiotic within the conjugate, mean (n=18)
Procedure: An MTT assay was used to assess cell viability in a human kidney (HK-2) cell line (72 h incubation). HK-2 cells were seeded into sterile 96-well microtitre plates (1×10^5 cells/mL) in 0.1 mL/well of media (K-SFM) containing L-glutamine, EGF and BPE. They were allowed to adhere for 24 h. The medium was then removed and a range of concentrations of test compounds (0.2 μm filter-sterilized) dissolved in fresh culture media were added to the cells. After a further 67 h incubation, MTT, 3-(4,5-dimethylthiazol-2-yl)-2,5-diphenyltetrazolium bromide, (20 μL of a 5 mg/mL solution in PBS) was added to each well and the cells were incubated for a further 5 h. The medium was then removed and the precipitated formazan crystals solubilized by addition of optical grade DMSO (100 μL) over 30 min. Absorbance was measured at 540 nm using a microtitre plate reader. Cell viability was expressed as a percentage of the viability of untreated control cells. The IC50 values were expressed as mean (n=18).
The IC50 values summarised below represent the concentration of the antibiotic (polymyxin B, colistin sulphate or colistin methanesulphonate (CMS)) or the antibiotic within the conjugate required to inhibit HK2 cells growth by half. OligoG is included as a control.

[2] = test system: TNFα release from HK2 cells; experiment: TNFα release from HK2 cells (ELISA); type: cell-based, human; details: 72 h incubation, FIG. 8
Procedure: As a model inflammatory cytokine involved in polymyxin cyto toxicity, TNFα release from HK2 cells in response to polymyxins and OligoG-polymyxin conjugates was measured by ELISA. HK-2 cells were seeded into sterile 96-well microtitre plates (1×10^5 cells/mL) in 0.1 mL/well of media (K-SFM) containing L-glutamine, EGF and BPE. They were allowed to adhere for 24 h. The medium was then removed and a range of concentrations of test compounds (0.2 μm filter-sterilized) dissolved in fresh culture media were added to the cells. After 72 h incubation, microtiter plates were centrifuged (1500 rpm, 3 min) and the supernatant was transferred into a new 96-well microtitre plate.
TNFα ELISA Assay was carried out according the manufacturer's instructions (Thermo Scientific, ESS0001). Briefly, 100 μL of coating antibody (1:100 dilution in PBS) was added to each well of 96-well microtitre plate. […] Absorbance was measured at 450 nm minus 550 nm.
Standard curves were generated by plotting the average absorbance obtained for each standard concentration on the vertical (Y) axis versus the corresponding human TNFα concentration (pg/mL) on the horizontal (X) axis. Human TNFα amount in each sample was determined by interpolating from the absorbance value (Y-axis) to human TNFα concentration (X-axis) using the standard curve. […]

[3] = test system: V6 Klebsiella pneumoniae IR25; experiment: MIC, broth microdilution, V6; type: cell-based; details: n=3, median
Procedure: (§1) The strains used for susceptibility testing include both culture collection strains and clinical isolates (Table 1). To the extent indicated below, their known relevant genotypes and origin have been described by Khan et al. supra.
(§2) The MICs were determined using the broth microdilution method in accordance with standard guidelines (CLSI 2012). Test organisms were suspended in Mueller Hinton cation adjusted (MH) broth (100 μL, 1-5×10^4 CFU/mL) and incubated in 96-well microtitre plates in serial two-fold dilutions of the test compounds. The MIC was defined as the lowest concentration of test compound that produced no visible growth after 16-20 hours.

[4] = test system: NH57388A Pseudomonas aeruginosa; experiment: MIC, broth microdilution, NH57388A; type: cell-based; details: Batch 6; n=3, median
Procedure: as §1, §2

[5] = test system: V19 Acinetobacter baumannii; experiment: MIC, broth microdilution, V19; type: cell-based; details: for MIC V19: n=3, median
Procedure: as §1, §2

V5 Escherichia coli = experiment: MIC, broth microdilution, V5; type: cell-based; details: n=3, median
Procedure: as §1, §2

[6] = test system: V2 Pseudomonas aeruginosa, V3 Klebsiella pneumoniae, V19 Acinetobacter baumannii, V7 Escherichia coli; experiment: Bacterial growth curves (absorbance at 600 nm, 48 h); type: cell-based
Procedure: Finally, bacterial growth curves, using the mean of the previously determined MIC values for OligoG-colistin conjugates (amide and ester linked) and colistin sulfate, were used to compare their pharmacokinetic profiles in vitro. For comparison, bacterial growth in the presence of i) OligoG, ii) PRONOVA (high molecular weight alginate) and iii) OligoG plus colistin, both at concentrations corresponding to the amounts present in the corresponding conjugates, was measured. Sterile 96-well microtitre plates were set up for MIC assay as previously described (range: MIC×16 to MIC/16, 0). Plates were then wrapped in parafilm and placed in a microtitre plate reader at 37° C., 5% CO2 and absorbance at 600 nm was measured hourly for 48 h. Experiments were conducted in triplicate and results were presented as mean values (n=3).

V11 Escherichia coli = experiment: MIC, broth microdilution, V11; type: cell-based; details: Batch 6; n=3, median
Procedure: as §1, §2

[7] = test system: V2 Pseudomonas aeruginosa (301); experiment: MIC, broth microdilution, V2; type: cell-based; details: for MIC V2: n=3, median
Procedure: as §1, §2

V3 Klebsiella pneumoniae = experiment: MIC, broth microdilution, V3; type: cell-based; details: for MIC V3: n=3, median
Procedure: as §1, §2

[8] = test system: Acinetobacter baumanii (V19); experiment: Two-compartment static dialysis bag PK/PD model, colony counts; type: cell-based; details: at MIC (0.25 μg/ml); after 4 h; Batch 6
From the text: Studies were undertaken to investigate the PK/PD profiles of the OligoG-colistin conjugates (Batch 6) as compared to non-conjugated colistin in vitro. This is particularly important in nanoscale drug delivery systems where the incorporation of conventional small molecule drugs into nano-sized structures is associated with PK/PD properties that are substantially altered from the original drug. The model system previously described in Azzopardi (supra) was employed.
The unmasking of OligoG-colistin conjugates was simulated using the Azzopardi two-compartment static dialysis bag model under infinite sink conditions (total volume, 20 ml; inner-compartment volume, 5 ml). Dialysis membrane (10,000 g/mol molecular weight cutoff [MWCO]) was pre-soaked for 15 to 30 min in distilled water (dH2O), secured with dialysis clips, and suspended from an injection port to separate the inner compartment (IC) from the outer compartment (OC) in a sterilized 25-ml beaker sealed with a sterile medical-grade polyurethane membrane (Tegaderm).
The model system was prepared under aseptic conditions in a class 2 laminar airflow cabinet and transferred to a shaking incubator set at 37° C. in ambient air and constant orbital agitation at 70 rpm for 48 h. […] Samples were collected from the OC at various time points and characterised by bacterial colony counts (CFU/ml) using Miles and Misra Method.

[9] = test system: V1 Pseudomonas aeruginosa R22; experiment: MIC, broth microdilution, V1; type: cell-based; details: n=3, median
Procedure: as §1, §2

[10] = test system: Pseudomonas aeruginosa biofilms; experiment: Disruption of biofilm development (CLSM, live/dead stain); type: cell-based; details: 2×MIC-MIC/8; 24 h
Procedure: (§3) These experiments investigated whether OligoG-colistin conjugates could inhibit biofilm development more effectively than unconjugated forms of colistin. First, stock solutions of the test compounds were prepared at 1 mg/mL in MH broth and used to prepare a range of antibiotic concentrations (2×MIC-MIC/8) using double dilutions in MH broth across wells of a Greiner glass-bottomed optical 96-well plate (90 μL per well). Sterility (100 μL of MH broth) and growth (90 μL of MH broth plus 10 μL of tested bacterial pathogen) controls were also prepared. Overnight bacterial cultures were grown in TS broth (TSB) and diluted in MH broth to achieve an OD625 of 0.5, then 10 μL was added to the wells. Plates were wrapped in parafilm and incubated for 24 h on a rocker (20 rpm) at 37° C. After a 24 h incubation, the supernatant was carefully removed from all wells and 3 μL of live/dead stain (Live/dead Baclight Bacterial Viability kit; prepared by mixing 1 μL of component A and B in 1 mL of PBS) was added. The plate was wrapped in foil and kept in the dark for 15 min. Lastly, 47 μL of PBS was added to all tested wells. The plate was wrapped in parafilm and kept in the dark until it was analysed by confocal laser scanning microscopy (CLSM), n=2.

[11] = test system: V4 Acinetobacter baumanii MDR ACB; experiment: MIC, broth microdilution, V4; type: cell-based; details: n=3, median
Procedure: as §1, §2

Pseudomonas aeruginosa = experiment: MIC quoted for the biofilm study; type: cell-based; details: FIG. 9 legend and Example 7; strain not stated
Procedure: as §2
as §3, with “After a 24 h incubation, the supernatant was carefully removed from all wells and 3 μL of live/dead stain (Live/dead Baclight Bacterial Viability kit; prepared by mixing 1 μL of component A and B in 1 mL of PBS) was added. The plate was wrapped in foil and kept in the dark for 15 min. Lastly, 47 μL of PBS was added to all tested wells.” left out

V7 Escherichia coli = experiment: MIC, broth microdilution, V7; type: cell-based; details: for MIC V7: n=3, median
Procedure: as §1, §2

Row | Substance | IC50 ([1]; Batch 5) [mg/mL] | TNFα release, adjusted for cell viability [2] | MIC V6 ([3]; Batch 4) [µg/mL] | MIC V6 ([3]; Batch 6) [µg/mL] | MIC NH57-388A [4] [µg/mL] | MIC V19 ([5]; Batch 2) [µg/mL] | MIC V19 ([5]; Batch 4) [µg/mL] | MIC V19 ([5]; Batch 6) [µg/mL] | MIC V5 (V5 Escherichia coli; Batch 2) [ng/mL] | MIC V5 (V5 Escherichia coli; Batch 4) [ng/mL] | MIC V5 (V5 Escherichia coli; Batch 6) [ng/mL] | MIC V11 (V11 Escherichia coli) [µg/mL] | MIC V2 ([7]; Batch 2) [µg/mL] | MIC V2 ([7]; Batch 4) [µg/mL] | MIC V2 ([7]; Batch 6) [µg/mL] | MIC V3 (V3 Klebsiella pneumoniae; Batch 2) [µg/mL] | MIC V3 (V3 Klebsiella pneumoniae; Batch 4) [µg/mL] | MIC V3 (V3 Klebsiella pneumoniae; Batch 6) [µg/mL] | MIC V1 ([9]; Batch 4) [µg/mL] | MIC V1 ([9]; Batch 6) [µg/mL] | other results
1 | colistin methanesulphonate [CMS] | 0.01397 | – | – | – | – | – | – | – | – | – | – | – | – | – | – | – | – | – | – | – | –
2 | colistin sulfate | 0.01098 | greater TNFα release | 0.0625 | 0.063 | 0.25 | <0.0625 | <0.016 | 0.25 | 0.02 | <16 | <8 | 0.031 | 0.25 | 0.25 | 0.5 | <0.125 | <0.063 | 0.125 | 0.25 | 0.5 | median MIC ([5]; FIG. 3 legend, V19, MIC used for growth curves): 2 ng/mL; bacterial growth / regrowth in growth curves ([6]; FIGS. 1-5, 48 h): more rapid bacterial regrowth; inhibition of bacterial re-growth ([6]; at the median of previously determined MIC values across all batches): shortest inhibition of bacterial re-growth; concentration inhibiting bacterial re-growth for up to 48 h ([6]; up to 48 h): > 8 ×MIC; median MIC ([7]; FIG. 1 legend, V2, MIC used for growth curves): 0.063 µg/mL; median MIC (V3 Klebsiella pneumoniae; FIG. 2 legend, V3, MIC used for growth curves): 8 ng/mL; reduction of viable bacterial counts [8]: ~2 fold; effect on biofilms [10]: only a small effect on P. aeruginosa biofilms; MIC V4 ([11]; Batch 4): 0.5 µg/mL; MIC V4 ([11]; Batch 6): 0.5 µg/mL; median MIC (Pseudomonas aeruginosa): 0.063 µg/mL; IC50 ([1]; Batch 4): 0.025 mg/mL; MIC V7 (V7 Escherichia coli; Batch 4): 0.125 µg/mL; MIC V7 (V7 Escherichia coli; Batch 6): 0.25 µg/mL; median MIC (V7 Escherichia coli; FIG. 4 legend, V7, MIC used for growth curves): 0.063 µg/mL
3 | polymyxin B | 0.01263 | greater TNFα release | 0.125 | 0.125 | 0.25 | <0.0625 | 0.031 | 0.125 | <0.008 | <16 | <4 | 0.063 | 0.25 | 0.5 | 0.5 | <0.125 | 0.125 | 0.125 | 0.25 | 0.25 | MIC V4 ([11]; Batch 4): 0.125 µg/mL; MIC V4 ([11]; Batch 6): 0.125 µg/mL; IC50 ([1]; Batch 4): 0.012 mg/mL; MIC V7 (V7 Escherichia coli; Batch 4): 0.063 µg/mL; MIC V7 (V7 Escherichia coli; Batch 6): 0.5 µg/mL
